Broadly, the inhibition is the drop in the measured response relative to a control, in per cent.

Here are results for 7 compounds from US8754130B2, “Compositions of dibromomalonamide and their use as biocides” (Dow Global Technologies LLC, priority 2009, dated 2014).

The test system of test [1] is consortium of bacteria: mixture of Pseudomonas aeruginosa, Klebsiella pneumoniae, Staphylococcus aureus, and Bacillus subtilis. Put plainly: Growth inhibition assay (microtiter plate-based synergy assay). It counts as cell-based. To be noted: 24 h; for I90 value (minimum concentration in which growth of the consortium is at least 90% less than controls): single active alone.

Test in test [2]: as above
Type of test: cell-based. The settings on record: 24 h.

Like-named read-outs stand apart in the source and are kept apart here.

As for `Cn1sccc1=O` [MIT, 2-methyl-4-isothiazolin-3-one], the “I90 value (minimum concentration in which growth of the consortium is at least 90% less than controls)” value in test [1] was found to be 25 mg/L. For the same compound, the inhibition at […] in test [2] (MIT 0.19 mg/l alone) came out at 0%. Besides, the inhibition at 0.39 µg/mL in test [2] (MIT 0.39 mg/l alone, read-out: % Inhibition of growth by MIT) was found to be 0%. Besides, the inhibition at 0.78 µg/mL in test [2] (MIT 0.78 mg/l alone, read-out: % Inhibition of growth by MIT) turned out to be 0%. For the same compound, the inhibition at 1.56 µg/mL in test [2] (MIT 1.56 mg/l alone, read-out: % Inhibition of growth by MIT) stood at 6%. In addition, the inhibition at 3.13 µg/mL in test [2] (MIT 3.13 mg/l alone, read-out: % Inhibition of growth by MIT) was determined as 6%. In addition, in test [2] (MIT 6.25 mg/l alone, read-out: % Inhibition of growth by MIT), the inhibition at 6.25 µg/mL stood at 16%. For the same compound, in test [2] (MIT 12.5 mg/l alone, read-out: % Inhibition of growth by MIT), the inhibition at 12.5 µg/mL was 38%. Moreover, in test [2] (MIT 25.0 mg/l alone, read-out: % Inhibition of growth by MIT), the inhibition at 25 µg/mL was found to be 96%.
As for `O=c1[nH]sc2ccccc12` [BIT, 1,2-benzisothiazolin-3-one], the “% Inhibition of growth by BIT” value in test [1] (BIT 3.91 mg/l alone) came out at 17%; in test [1] (BIT 7.81 mg/l alone) it was 46%. For the same compound, the “I90 value (minimum concentration in which growth of the consortium is at least 90% less than controls)” value in test [1] is 15.63 mg/L.
Consider `Cn1sc2ccccc2c1=O` [MBIT, N-methyl-1,2-benzisothiazolin-3-one], for which the “% Inhibition of growth by MBIT” value in test [1] (MBIT 0.78 mg/l alone) is 16%; in test [1] (MBIT 1.56 mg/l alone), 13%; in test [1] (MBIT 6.25 mg/l alone), 26%; in test [1] (MBIT 12.5 mg/l alone), 53%; in test [1] (MBIT 25.0 mg/l alone), 23%; in test [1] (MBIT 50.0 mg/l alone), 67%. Further, the “I90 value (minimum concentration in which growth of the consortium is at least 90% less than controls)” value in test [1] came out at 100.0 mg/L.
Take `NC(=O)C(Br)(Br)C(N)=O` [DBMAL, 2,2-dibromomalonamide]: the inhibition at 0.39 µg/mL in test [2] (Table 2, DBMAL 0.39 mg/l alone, read-out: % Inhibition of growth by DBMAL) came to 11%; in test [2] (Table 4, DBMAL 0.39 mg/l alone, read-out: % Inhibition of growth by DBMAL), 6%; in test [2] (Table 6, DBMAL 0.39 mg/l alone, read-out: % Inhibition of growth by DBMAL), 0%; in test [2] (Table 8, DBMAL 0.39 mg/l alone, read-out: % Inhibition of growth by DBMAL), 3%; in test [2] (Table 10, DBMAL 0.39 mg/l alone, read-out: % Inhibition of growth by DBMAL), 3%; in test [2] (Table 12, DBMAL 0.39 mg/l alone, read-out: % Inhibition of growth by DBMAL) it was 3%. In addition, the inhibition at 0.39 µg/mL in test [2] (Table 14, DBMAL 0.39 mg/l alone, read-out: % Inhibition of growth by DBMAL) was determined as 3%. Further, the inhibition at 0.78 µg/mL came to 13% in test [2] (Table 2, DBMAL 0.78 mg/l alone, read-out: % Inhibition of growth by DBMAL); 2% in test [2] (Table 4, DBMAL 0.78 mg/l alone, read-out: % Inhibition of growth by DBMAL); 6% in test [2] (Table 6, DBMAL 0.78 mg/l alone, read-out: % Inhibition of growth by DBMAL); 1% in test [2] (Table 8, DBMAL 0.78 mg/l alone, read-out: % Inhibition of growth by DBMAL); 0% in test [2] (Table 10, DBMAL 0.78 mg/l alone, read-out: % Inhibition of growth by DBMAL); 0% in test [2] (Table 12, DBMAL 0.78 mg/l alone, read-out: % Inhibition of growth by DBMAL). Besides, in test [2] (Table 14, DBMAL 0.78 mg/l alone, read-out: % Inhibition of growth by DBMAL), the inhibition at 0.78 µg/mL worked out at 0%. The inhibition at 1.56 µg/mL came out at 15% in test [2] (Table 2, DBMAL 1.56 mg/l alone, read-out: % Inhibition of growth by DBMAL); 1% in test [2] (Table 4, DBMAL 1.56 mg/l alone, read-out: % Inhibition of growth by DBMAL); 0% in test [2] (Table 8, DBMAL 1.56 mg/l alone, read-out: % Inhibition of growth by DBMAL); 1% in test [2] (Table 10, DBMAL 1.56 mg/l alone, read-out: % Inhibition of growth by DBMAL); 1% in test [2] (Table 12, DBMAL 1.56 mg/l alone, read-out: % Inhibition of growth by DBMAL); 0% in test [2] (Table 14, DBMAL 1.56 mg/l alone, read-out: % Inhibition of growth by DBMAL). In addition, the inhibition at 3.13 µg/mL came to 23% in test [2] (Table 2, DBMAL 3.13 mg/l alone, read-out: % Inhibition of growth by DBMAL); 11% in test [2] (Table 6, DBMAL 3.13 mg/l alone, read-out: % Inhibition of growth by DBMAL); 8% in test [2] (Table 8, DBMAL 3.13 mg/l alone, read-out: % Inhibition of growth by DBMAL); 0% in test [2] (Table 10, DBMAL 3.13 mg/l alone, read-out: % Inhibition of growth by DBMAL); 0% in test [2] (Table 12, DBMAL 3.13 mg/l alone, read-out: % Inhibition of growth by DBMAL); 0% in test [2] (Table 14, DBMAL 3.13 mg/l alone, read-out: % Inhibition of growth by DBMAL). Besides, the inhibition at 6.25 µg/mL worked out at 0% in test [2] (Table 2, DBMAL 6.25 mg/l alone, read-out: % Inhibition of growth by DBMAL); 23% in test [2] (Table 4, DBMAL 6.25 mg/l alone, read-out: % Inhibition of growth by DBMAL); 28% in test [2] (Table 6, DBMAL 6.25 mg/l alone, read-out: % Inhibition of growth by DBMAL); 45% in test [2] (Table 8, DBMAL 6.25 mg/l alone, read-out: % Inhibition of growth by DBMAL); 44% in test [2] (Table 10, DBMAL 6.25 mg/l alone, read-out: % Inhibition of growth by DBMAL); 44% in test [2] (Table 12, DBMAL 6.25 mg/l alone, read-out: % Inhibition of growth by DBMAL). Besides, the inhibition at 6.25 µg/mL in test [2] (Table 14, DBMAL 6.25 mg/l alone, read-out: % Inhibition of growth by DBMAL) stood at 34%. The inhibition at 12.5 µg/mL was determined as 98% in test [2] (Table 2, DBMAL 12.5 mg/l alone, read-out: % Inhibition of growth by DBMAL); 100% in test [2] (Table 6, DBMAL 12.5 mg/l alone, read-out: % Inhibition of growth by DBMAL); 100% in test [2] (Table 8, DBMAL 12.5 mg/l alone, read-out: % Inhibition of growth by DBMAL); 100% in test [2] (Table 10, DBMAL 12.5 mg/l alone, read-out: % Inhibition of growth by DBMAL); 100% in test [2] (Table 12, DBMAL 12.5 mg/l alone, read-out: % Inhibition of growth by DBMAL); 93% in test [2] (Table 14, DBMAL 12.5 mg/l alone, read-out: % Inhibition of growth by DBMAL). In addition, the inhibition at 25 µg/mL in test [2] (Table 4, DBMAL 25.0 mg/l alone, read-out: % Inhibition of growth by DBMAL) amounted to 100%; in test [2] (Table 6, DBMAL 25.0 mg/l alone, read-out: % Inhibition of growth by DBMAL), 100%; in test [2] (Table 8, DBMAL 25.0 mg/l alone, read-out: % Inhibition of growth by DBMAL), 99%; in test [2] (Table 10, DBMAL 25.0 mg/l alone, read-out: % Inhibition of growth by DBMAL), 100%; in test [2] (Table 12, DBMAL 25.0 mg/l alone, read-out: % Inhibition of growth by DBMAL), 100%; in test [2] (Table 14, DBMAL 25.0 mg/l alone, read-out: % Inhibition of growth by DBMAL), 100%.
Turning to `CCCCCCCCn1sccc1=O` [OIT, 2-n-octyl-4-isothiazolin-3-one], the “I90 value (minimum concentration in which growth of the consortium is at least 90% less than controls)” value in test [1] amounted to 125 mg/L. Moreover, in test [2] (OIT 3.91 mg/l alone), the inhibition at 3.91 µg/mL came out at 0%. Further, the inhibition at 7.81 µg/mL in test [2] (OIT 7.81 mg/l alone) turned out to be 7%. The inhibition at 15.63 µg/mL in test [2] (OIT 15.63 mg/l alone) is 24%. The inhibition at 31.25 µg/mL in test [2] (OIT 31.25 mg/l alone) is 43%. Also, the inhibition at 62.5 µg/mL in test [2] (OIT 62.5 mg/l alone) was 64%. Besides, the inhibition at 125 µg/mL in test [2] (OIT 125.0 mg/l alone) stood at 100%. Also, the inhibition at 250 µg/mL in test [2] (OIT 250.0 mg/l alone) amounted to 100%. In addition, the inhibition at 500 µg/mL in test [2] (OIT 500.0 mg/l alone) is 100%.
As for `CCCCn1sc2ccccc2c1=O` [BBIT, N-butyl-1,2-benzisothiazolin-3-one], the “% Inhibition of growth by BBIT” value in test [1] (BBIT 6.25 mg/l alone) was found to be 32%; in test [1] (BBIT 12.5 mg/l alone), 24%; in test [1] (BBIT 25.0 mg/l alone), 49%. Further, the “I90 value (minimum concentration in which growth of the consortium is at least 90% less than controls)” value in test [1] amounted to 50.0 mg/L.
As for `Cn1sc(Cl)cc1=O` [CMIT, 5-chloro-2-methyl-4-isothiazolin-3-one], the “I90 value (minimum concentration in which growth of the consortium is at least 90% less than controls)” value in test [1] amounted to 0.78 mg/L. For the same compound, the inhibition at 0.39 µg/mL in test [2] (CMIT 0.39 mg/l alone, read-out: % Inhibition of growth by CMIT) is 10%. In test [2] (CMIT 0.78 mg/l alone, read-out: % Inhibition of growth by CMIT), the inhibition at 0.78 µg/mL was determined as 97%. Moreover, in test [2] (CMIT 1.56 mg/l alone, read-out: % Inhibition of growth by CMIT), the inhibition at 1.56 µg/mL was found to be 96%. Moreover, the inhibition at 3.13 µg/mL in test [2] (CMIT 3.13 mg/l alone, read-out: % Inhibition of growth by CMIT) was 98%. In test [2] (CMIT 6.25 mg/l alone, read-out: % Inhibition of growth by CMIT), the inhibition at 6.25 µg/mL is 97%. The inhibition at 12.5 µg/mL in test [2] (CMIT 12.5 mg/l alone, read-out: % Inhibition of growth by CMIT) worked out at 96%. In addition, the inhibition at 25 µg/mL in test [2] (CMIT 25.0 mg/l alone, read-out: % Inhibition of growth by CMIT) came to 98%.
